We go through four compounds from article PMC5564600 (Oncotarget, 2017).

Test in all cases: biochemical
Type in all cases: binding

In assay [1] the target is T1, panel of 442 kinases (Homo sapiens, UniProt P31749).
T1 construct: purchased Ambit Biosciences (scanMAXX KINOMEscan)
Particulars: AKT1; for remaining activity at 1 µM: read-out: % of control at 1 µM.

The target of assay [2] is T2, panel of 442 kinases (Homo sapiens, UniProt P36888, R834Q).
T2 construct: purchased Ambit Biosciences (scanMAXX KINOMEscan)
T2 sequence (P36888 27-993 R834Q): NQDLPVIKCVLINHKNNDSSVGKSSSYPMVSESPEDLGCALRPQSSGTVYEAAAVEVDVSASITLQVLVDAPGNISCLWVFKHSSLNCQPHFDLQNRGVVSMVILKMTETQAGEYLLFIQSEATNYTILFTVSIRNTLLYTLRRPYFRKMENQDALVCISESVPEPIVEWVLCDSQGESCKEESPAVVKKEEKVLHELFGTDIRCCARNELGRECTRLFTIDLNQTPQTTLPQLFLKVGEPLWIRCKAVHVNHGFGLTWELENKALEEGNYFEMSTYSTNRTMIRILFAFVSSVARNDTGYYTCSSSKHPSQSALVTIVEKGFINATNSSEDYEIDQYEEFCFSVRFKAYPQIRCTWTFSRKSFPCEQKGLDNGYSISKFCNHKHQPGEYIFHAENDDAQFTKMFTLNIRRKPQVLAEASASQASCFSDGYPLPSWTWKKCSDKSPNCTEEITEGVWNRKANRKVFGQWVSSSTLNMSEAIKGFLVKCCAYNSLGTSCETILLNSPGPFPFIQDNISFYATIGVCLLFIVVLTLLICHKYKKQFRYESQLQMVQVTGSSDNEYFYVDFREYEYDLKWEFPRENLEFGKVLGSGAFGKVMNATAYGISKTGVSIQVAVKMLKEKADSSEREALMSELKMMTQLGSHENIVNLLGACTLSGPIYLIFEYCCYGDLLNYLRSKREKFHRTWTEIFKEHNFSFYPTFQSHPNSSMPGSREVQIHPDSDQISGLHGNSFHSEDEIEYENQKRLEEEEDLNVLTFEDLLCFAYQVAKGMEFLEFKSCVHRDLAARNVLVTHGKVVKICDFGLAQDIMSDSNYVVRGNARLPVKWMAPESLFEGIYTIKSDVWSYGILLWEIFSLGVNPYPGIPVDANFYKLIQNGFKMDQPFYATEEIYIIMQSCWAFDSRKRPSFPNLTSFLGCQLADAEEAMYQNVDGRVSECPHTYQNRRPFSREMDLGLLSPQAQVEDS
The conditions noted are these: kinase FLT3(R834Q); for remaining activity at 1 µM: read-out: % of control at 1 µM.

Assay [3] has as its target T3, panel of 442 kinases (Homo sapiens, UniProt P49841).
T3 construct: purchased Ambit Biosciences (scanMAXX KINOMEscan)
Particulars: kinase GSK3B; for remaining activity at 1 µM: read-out: % of control at 1 µM.

The target of assay [4] is T4, panel of 442 kinases (Homo sapiens, UniProt Q02763).
T4 construct: purchased Ambit Biosciences (scanMAXX KINOMEscan)
T4 sequence (Q02763 23-1124): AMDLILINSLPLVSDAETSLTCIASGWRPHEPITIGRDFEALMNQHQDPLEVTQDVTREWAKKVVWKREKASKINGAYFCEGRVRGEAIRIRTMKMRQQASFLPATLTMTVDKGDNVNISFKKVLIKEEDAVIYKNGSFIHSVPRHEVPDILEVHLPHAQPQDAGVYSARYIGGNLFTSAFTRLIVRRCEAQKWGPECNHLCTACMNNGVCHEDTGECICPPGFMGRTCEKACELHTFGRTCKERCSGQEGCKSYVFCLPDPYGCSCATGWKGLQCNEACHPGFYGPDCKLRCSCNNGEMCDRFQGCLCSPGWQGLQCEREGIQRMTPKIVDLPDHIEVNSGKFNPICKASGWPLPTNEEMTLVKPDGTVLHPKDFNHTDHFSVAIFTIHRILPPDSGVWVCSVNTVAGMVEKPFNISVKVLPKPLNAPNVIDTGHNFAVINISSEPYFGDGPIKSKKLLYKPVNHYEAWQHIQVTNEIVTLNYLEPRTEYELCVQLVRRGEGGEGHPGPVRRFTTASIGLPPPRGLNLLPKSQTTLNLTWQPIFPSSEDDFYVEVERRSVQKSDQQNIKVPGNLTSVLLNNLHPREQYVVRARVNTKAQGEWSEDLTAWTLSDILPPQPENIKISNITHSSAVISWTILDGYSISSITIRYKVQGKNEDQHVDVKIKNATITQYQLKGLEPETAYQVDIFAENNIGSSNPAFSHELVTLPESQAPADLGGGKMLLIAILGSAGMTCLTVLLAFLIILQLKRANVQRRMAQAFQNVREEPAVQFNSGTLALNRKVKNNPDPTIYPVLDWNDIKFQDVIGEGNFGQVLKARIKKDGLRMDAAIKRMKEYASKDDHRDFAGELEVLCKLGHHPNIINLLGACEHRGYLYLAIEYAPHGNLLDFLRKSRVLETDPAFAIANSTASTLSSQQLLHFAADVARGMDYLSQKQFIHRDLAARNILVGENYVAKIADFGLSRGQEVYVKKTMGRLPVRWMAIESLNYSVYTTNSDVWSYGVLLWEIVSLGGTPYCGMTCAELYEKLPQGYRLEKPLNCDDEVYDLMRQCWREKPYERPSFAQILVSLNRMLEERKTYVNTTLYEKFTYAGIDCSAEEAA
The conditions noted are these: kinase TIE2; for remaining activity at 1 µM: read-out: TIE2 (% of control at 1 µM).

Assay [5] deals with T5, panel of 442 kinases (Homo sapiens, UniProt Q96PY6).
T5 construct: purchased Ambit Biosciences (scanMAXX KINOMEscan)
T5 sequence (Q96PY6 1-1258): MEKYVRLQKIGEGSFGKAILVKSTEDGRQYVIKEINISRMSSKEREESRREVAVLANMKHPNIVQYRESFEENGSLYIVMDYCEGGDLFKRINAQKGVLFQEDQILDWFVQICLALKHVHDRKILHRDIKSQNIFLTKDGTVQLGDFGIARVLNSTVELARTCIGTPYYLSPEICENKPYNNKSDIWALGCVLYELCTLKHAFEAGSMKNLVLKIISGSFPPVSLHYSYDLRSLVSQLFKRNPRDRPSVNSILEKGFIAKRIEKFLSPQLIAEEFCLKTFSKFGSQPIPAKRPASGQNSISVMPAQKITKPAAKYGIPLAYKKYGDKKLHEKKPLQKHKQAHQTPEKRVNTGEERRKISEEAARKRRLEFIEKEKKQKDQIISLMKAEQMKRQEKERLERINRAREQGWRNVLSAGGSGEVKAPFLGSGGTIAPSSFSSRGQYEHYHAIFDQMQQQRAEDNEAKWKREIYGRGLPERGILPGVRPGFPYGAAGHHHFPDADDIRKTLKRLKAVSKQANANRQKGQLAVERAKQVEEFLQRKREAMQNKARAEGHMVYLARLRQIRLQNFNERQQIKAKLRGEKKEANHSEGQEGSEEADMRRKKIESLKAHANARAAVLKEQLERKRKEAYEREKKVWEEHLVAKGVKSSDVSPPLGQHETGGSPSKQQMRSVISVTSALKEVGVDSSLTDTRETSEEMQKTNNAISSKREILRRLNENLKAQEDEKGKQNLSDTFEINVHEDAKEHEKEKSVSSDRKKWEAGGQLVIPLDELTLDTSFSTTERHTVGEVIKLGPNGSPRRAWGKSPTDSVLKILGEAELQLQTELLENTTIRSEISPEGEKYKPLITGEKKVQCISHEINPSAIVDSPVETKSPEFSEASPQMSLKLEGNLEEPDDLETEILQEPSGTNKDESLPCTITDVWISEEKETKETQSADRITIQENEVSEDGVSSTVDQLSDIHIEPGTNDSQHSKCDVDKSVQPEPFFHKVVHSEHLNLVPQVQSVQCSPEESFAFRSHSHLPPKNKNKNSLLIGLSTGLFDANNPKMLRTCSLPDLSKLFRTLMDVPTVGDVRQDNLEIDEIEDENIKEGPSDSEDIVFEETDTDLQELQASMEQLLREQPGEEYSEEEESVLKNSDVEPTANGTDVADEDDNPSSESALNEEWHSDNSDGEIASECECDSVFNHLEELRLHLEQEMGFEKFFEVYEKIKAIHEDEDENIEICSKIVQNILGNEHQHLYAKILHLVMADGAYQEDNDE
Particulars: kinase NEK1; for remaining activity at 1 µM: read-out: % of control at 1 µM.

Assay [6] addresses T6, panel of 442 kinases (Homo sapiens, UniProt Q9NYY3).
T6 construct: purchased Ambit Biosciences (scanMAXX KINOMEscan)
Particulars: kinase PLK2; for remaining activity at 1 µM: read-out: PLK2 (% of control at 1 µM).

Where [7] appears, read: 10 µM, read-out: % of control at 10 µM.

T3 sequence (P49841 whole entry): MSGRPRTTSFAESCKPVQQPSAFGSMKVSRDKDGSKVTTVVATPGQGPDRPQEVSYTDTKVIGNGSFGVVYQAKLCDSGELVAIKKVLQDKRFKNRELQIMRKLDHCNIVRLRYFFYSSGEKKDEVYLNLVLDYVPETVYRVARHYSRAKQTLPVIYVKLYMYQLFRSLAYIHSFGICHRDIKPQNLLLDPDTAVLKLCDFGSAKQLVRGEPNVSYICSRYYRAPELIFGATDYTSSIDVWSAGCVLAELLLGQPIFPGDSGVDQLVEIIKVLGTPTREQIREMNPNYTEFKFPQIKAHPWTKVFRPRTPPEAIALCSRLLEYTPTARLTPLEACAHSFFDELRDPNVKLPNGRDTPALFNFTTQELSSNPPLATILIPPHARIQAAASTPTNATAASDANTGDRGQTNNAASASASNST
T6 sequence (Q9NYY3 whole entry): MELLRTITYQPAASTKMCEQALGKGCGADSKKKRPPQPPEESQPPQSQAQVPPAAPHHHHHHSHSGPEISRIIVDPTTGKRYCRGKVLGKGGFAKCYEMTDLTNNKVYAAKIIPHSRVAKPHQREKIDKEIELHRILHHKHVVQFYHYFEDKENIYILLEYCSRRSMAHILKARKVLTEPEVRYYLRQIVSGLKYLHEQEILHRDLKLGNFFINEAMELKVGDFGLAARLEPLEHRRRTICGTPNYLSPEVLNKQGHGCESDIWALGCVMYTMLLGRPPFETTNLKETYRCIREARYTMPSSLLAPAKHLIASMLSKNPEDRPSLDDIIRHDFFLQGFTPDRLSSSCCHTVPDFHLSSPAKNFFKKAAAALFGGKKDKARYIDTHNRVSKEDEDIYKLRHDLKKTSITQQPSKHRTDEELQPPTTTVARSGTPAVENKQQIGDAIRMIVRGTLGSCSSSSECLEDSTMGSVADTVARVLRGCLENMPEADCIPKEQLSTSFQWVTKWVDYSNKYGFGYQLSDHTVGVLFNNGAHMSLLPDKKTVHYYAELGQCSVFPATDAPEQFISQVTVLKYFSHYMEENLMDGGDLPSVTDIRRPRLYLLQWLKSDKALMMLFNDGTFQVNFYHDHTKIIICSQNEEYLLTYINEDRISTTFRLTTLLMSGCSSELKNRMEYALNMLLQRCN
T1 sequence (P31749 whole entry): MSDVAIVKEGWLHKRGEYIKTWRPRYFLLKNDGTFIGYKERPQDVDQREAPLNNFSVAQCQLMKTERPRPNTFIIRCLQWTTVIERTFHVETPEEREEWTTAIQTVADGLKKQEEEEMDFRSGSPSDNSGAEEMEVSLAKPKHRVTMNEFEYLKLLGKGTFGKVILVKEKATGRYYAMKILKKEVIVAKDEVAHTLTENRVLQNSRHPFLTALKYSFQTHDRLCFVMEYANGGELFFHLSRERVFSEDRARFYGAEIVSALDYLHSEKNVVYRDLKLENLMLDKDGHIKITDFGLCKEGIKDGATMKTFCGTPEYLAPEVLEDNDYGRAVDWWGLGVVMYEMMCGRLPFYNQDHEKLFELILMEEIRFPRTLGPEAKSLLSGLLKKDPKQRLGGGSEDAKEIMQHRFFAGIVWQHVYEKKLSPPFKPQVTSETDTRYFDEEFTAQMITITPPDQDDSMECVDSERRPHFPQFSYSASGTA

As to `Nc1cc(C(F)(F)F)c(-c2cc(N3CCOCC3)nc(N3CCOCC3)n2)cn1` [Buparlisib], the remaining activity at 1 µM at panel of 442 kinases [1] was 94%; at panel of 442 kinases [2] it was 100%; at panel of 442 kinases [3] it was 86%; at panel of 442 kinases [4], 100%; on panel of 442 kinases [5], 100%; at panel of 442 kinases [6] it was 89%. The remaining activity at 10 µM at panel of 442 kinases [1] (setting [7]) was 100%; at panel of 442 kinases [2] (setting [7]) it was 100%; at panel of 442 kinases [3] (setting [7]), 100%; on panel of 442 kinases [4] (10 µM, read-out: TIE2 (% of control at 10 µM)) it was 100%; on panel of 442 kinases [5] (setting [7]), 100%; on panel of 442 kinases [6] (10 µM, read-out: PLK2 (% of control at 10 µM)) it was 100%.
As for `Cn1c(=O)n(-c2ccc(C(C)(C)C#N)cc2)c2c3cc(-c4cnc5ccccc5c4)ccc3ncc21` [Dactolisib, 2-methyl-2-[4-(3-methyl-2-oxo-8-quinolin-3-yl-2,3-dihydroimidazo[4,5-c]quinolin-1-yl)-phenyl] propionitrile], the remaining activity at 1 µM stood at 100% at panel of 442 kinases [1]; 100% on panel of 442 kinases [3]; 100% on panel of 442 kinases [4]; 98% at panel of 442 kinases [5]; 100% at panel of 442 kinases [6].
Turning to `FC(F)c1nc2ccccc2n1-c1nc(N2CCOCC2)nc(N2CCOCC2)n1` [ZSTK474, 2-(difluoromethyl)-1-[4,6-di(4-morpholinyl)-1,3,5-triazin-2-yl]-1H-benzimidazole], the remaining activity at 1 µM is 100% at panel of 442 kinases [1]; 100% at panel of 442 kinases [2]; 91% at panel of 442 kinases [3]; 100% at panel of 442 kinases [4]; 100% on panel of 442 kinases [5]; 100% at panel of 442 kinases [6].
Take `COc1ncc(-c2ccc3nccc(-c4ccnnc4)c3c2)cc1NS(=O)(=O)c1ccc(F)cc1F` [Omipalisib]: the remaining activity at 1 µM at panel of 442 kinases [1] amounted to 59%; at panel of 442 kinases [2] it was 100%; at panel of 442 kinases [3] it was 89%; on panel of 442 kinases [4] it was 100%; on panel of 442 kinases [5] it was 87%; at panel of 442 kinases [6], 100%.
